The source of these data is patent US7183061B2, “Method of expressing Heliothis ecdysone receptor fusion protein” (Syngenta Limited, priority 1996, dated 2007).

Test [1] has as its target T1, glucocorticoid/Heliothis ecdysone chimeric receptor (UniProt O18473+P04150).
T1 sequence (P04150+O18473 with tags, fused parts or gaps): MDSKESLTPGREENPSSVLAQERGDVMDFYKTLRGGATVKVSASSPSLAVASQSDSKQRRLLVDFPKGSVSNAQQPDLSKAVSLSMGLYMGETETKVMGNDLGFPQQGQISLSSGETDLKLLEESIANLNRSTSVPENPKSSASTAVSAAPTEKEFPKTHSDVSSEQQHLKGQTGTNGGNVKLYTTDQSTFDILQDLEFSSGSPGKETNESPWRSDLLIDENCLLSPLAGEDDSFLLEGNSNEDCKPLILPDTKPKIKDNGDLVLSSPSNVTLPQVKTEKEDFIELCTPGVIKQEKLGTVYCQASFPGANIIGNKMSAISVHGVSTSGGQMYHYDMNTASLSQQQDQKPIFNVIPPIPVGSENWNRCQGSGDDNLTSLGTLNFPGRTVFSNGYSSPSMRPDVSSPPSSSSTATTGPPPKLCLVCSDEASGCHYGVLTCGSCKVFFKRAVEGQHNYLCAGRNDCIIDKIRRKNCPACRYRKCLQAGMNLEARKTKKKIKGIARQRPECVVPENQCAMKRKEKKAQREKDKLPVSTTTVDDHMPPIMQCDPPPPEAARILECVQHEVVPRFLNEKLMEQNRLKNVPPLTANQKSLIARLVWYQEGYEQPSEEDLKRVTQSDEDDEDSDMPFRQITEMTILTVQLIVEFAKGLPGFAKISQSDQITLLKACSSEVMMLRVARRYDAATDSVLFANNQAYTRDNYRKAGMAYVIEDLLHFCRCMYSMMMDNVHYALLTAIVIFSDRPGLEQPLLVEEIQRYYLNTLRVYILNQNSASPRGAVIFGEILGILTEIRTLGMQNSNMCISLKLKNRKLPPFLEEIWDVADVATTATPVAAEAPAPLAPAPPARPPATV
Description: Tobacco mesophyll protoplast GUS reporter assay with chimeric effector and p221.9GRE6. It is filed as cell-based, Heliothis virescens. Also on record: expressed in transfected cells; host or cells: maize protoplasts (A5); tobacco mesophyll protoplasts (A6); CHO-K1 (A7); HEK293 (A8); stably transformed tobacco plants (A9). As to conditions: tobacco protoplasts, 10 μM. How it is done: It is the aim in this example to show the generic application to plants of the glucocorticoid/Heliothis ecdysone chimeric receptor switch system. Tobacco shoot cultures cv. Samsun, were maintained on solidified MS medium +3% sucrose in a controlled environment room (16 hour day/8 hour night at 25° C., 55% R.H), were used as the source material for protoplasts. Leaves were sliced parallel to the mid-rib, discarding any large veins and the slices were placed in CPW13M 13% Mannitol, pH 5.6, ˜860 mmol/kg) for ˜1 hour to pre-plasmolyse the cells. This solution was replaced with enzyme mixture (0.2% Cellulase R10, 0.05% Macerozyme R10 in CPW9M (CPW13M but 9% Mannitol), pH 5.6, ˜600 mmol/kg) and incubated in the dark at 25° C. overnight (˜16 hours). Following digestion, the tissue was teased apart with forceps and any large undigested pieces were discarded. The enzyme mixture was passed through a 75 μm sieve and the filtrate was centrifuged at 600 rpm for 3.5 minutes, discarding the supernatant. The pellet was resuspended in 0.6 M sucrose solution and centrifuged at 600 rpm for 10 minutes. The floating layer of protoplasts was removed using a Pasteur pipette and diluted with CPW9M (pH 5.6, ˜560 mmol/kg). The protoplasts were again pelleted by centrifuging at 600 rpm for 3.5 minutes, resuspended in CPW9M and counted. A modified version of the PEG-mediated transformation above was carried out. […]
Background: In a reporter assay the amount or activity of a reporter protein is the signal.

Test [2] addresses T1, glucocorticoid/Heliothis ecdysone chimeric receptor. Nature of the test: CHO cells transfected with pcDNA3GRHEcR and pSWGRE4 (β-galactosidase reporter). It is filed as cell-based, Heliothis virescens. Also noted: expressed in transfected cells; host or cells: CHO-K1 (A7). As to conditions: co-transformed CHO cells (FIG. 27). As to the method: Transfections of mammalian cell lines (CHO-K1 Chinese hamster ovary) ATCC number CCL61 or cos-1 (Monkey cell line) were performed using either calcium phosphate precipitation (Gorman, Chapter 6 of “DNA cloning: a practical approach. Vol 2 D. M. Glover ed/.(1985) IRL Press, Oxford) or using LipofectAMINE (Gibco BRL Cat. No. 18324–012, following manufacturer's instructions). […] 293 cells were transfected using analogous methods.
The mammalian expression vector used in this experiment was pcDNA3 (Invitrogen). The GRHEcR 2.7 kb BamHI DNA fragment (isolated from pMF6GRHEcR) was introduced into the pcDNA3 BamHI vector. The recombinants were oriented by restriction enzyme mapping. The DNA sequence of the junctions was determined to ensure correct orientation and insertion (pcDNA3GRHEcR, FIG. 25).
The reporter plasmid for mammalian cell system was produced by taking pSWBGAL plasmid and replacing the CRESW SpeI/ClaI fragment for a synthetic 105 bp DNA fragment containing 4 copies of the glucocorticoid response element (GRE) and flanked by SpeI at the 5′ end and AflII at the 3′ end.
The two oligonucleotides were purified annealed and ligated to pSWBGAL SpeI/AflII to produce pSWGRE4 (FIG. 26).
A screen was carried out using CHO cells transiently transfected with both pSWGRE4 (reporter) and pcDNA3GRHEcR (effector) constructs. […]

SMILES strings stand for the structures.

Regarding `CCc1ccc(C(=O)NN(C(=O)c2cc(C)cc(C)c2)C(C)(C)C)cc1` [RH5992, 3,5-dimethylbenzoic acid 1-1(1,1-dimethylethyl)-2(4-ethylbenzoyl)hydrazide], the marker gene activity entry in test [1] was “significant elevation of marker gene activity”. Further, the “chemical induced reporter gene activity” value in test [2] is recorded as “significant chemical induced reporter gene activity”.
